Measurements reported in patent US12116371B2, “Substituted pyridines as irreversible inhibitors of menin-MLL interaction” (BIOMEA FUSION, INC., priority 2018, dated 2024).
Where two headings read alike, the source gives them in different places.

Assays:
Settings in all cases: for IC50: Homo sapiens
Panc 10.05 cells = assay: Proliferation assay, cells in adhesion; format: cell-based
NCI-H23 cells = assay: Proliferation assay, cells in adhesion; format: cell-based
MV4-11 cells = assay: Long term proliferation assay, InCell read-out; format: cell-based, human
Experimental: (§1) Compounds of invention are tested in the 5 suspension lines by 14-day long-term proliferation assay.
(§2) The compound is tested in 10-pt dose titration (client will determine the starting concentration and the dilution scheme) and the final DMSO concentration is kept at 0.2%.
(§3) On Day 0, in a flat bottom 96-well plate, add 100 μL of cells per well at the densities optimized. Prepare compounds in DMSO at 500× final concentration. Dilute the compounds with DMSO at the dilution. Dilute the compounds in media at 3× final concentration. Add 50 μL of compound or DMSO at 3× final concentration to each well. Final volume in each well is 150 μL, and final concentration of DMSO is 0.2%. Also include 3 untreated control wells, by adding 50 μL of media alone. Incubate plates for 96 hours.
(§4) To do this take the total viable cell count calculated using step: • 1. Take the average of the replicates for each dose in order to be used in splitting the cells. • 2. Use a 96 well V-bottom plate to spin down the cells to remove old media and compound to split the cells. • 3. Based on the split ratio place the proper amount of media and cells into the V-bottom plate, and spin the plate at 1100 rpm for 5 minutes. • 4. Following the spin remove the media, careful not to disturb the cell pellet. Re-suspend pellet in 100 μL fresh media, and add to a new 96-well flat bottom plate. • 5. Add fresh compound, in the same manner as Step 3). • 6. Incubate plates for 72 hours. Repeat steps 5)-10) on Day 7. • 7. Incubate plates for 96 hours. Repeat Step 5)-10) on Day 11. • 8. Incubate 72 hours and repeat step 5) to take a final count. • 9. Data Analysis
(§5) To calculate growth for days 4, 7, 11, and 14: • 1. Calculate the split factor for day 4 to 7, day 7 to 11, and day 11-14. The split factor is the viable cells/mL on Day X (either 4, 7 or 11) divided by the density the cells are being split back to. • 2. For growth of cells from day 4 to 7, multiply the day 7 viable cells/mL density by the split factor from day 4. • 3. For growth of cells from day 7 to 11, multiply the day 11 viable cells/mL density by the days 4, and 7 split factors. • 4. For growth of cells from Day 11 to 14, multiply the Day 14 viable cells/mL density by the days 4, 7, and 11 split factors. • 5. Plot growth on semi-log chart (viable cells/mL on Y axis, in log, and days on X axis). • 6. The growth inhibition was calculated with the formula ((untreated cell numbers-treated cell numbers)/untreated cell)). • 7. Calculate the IC50 for each compound in each line using XLFit (Sigmoidal Dose-Response Model, y=(Bottom+((Top-Bottom)/(1+((IC50/×)^Hill))))).

MOLM-13 cells [1] = assay: Long term proliferation assay, InCell read-out; format: cell-based, human
Experimental: as §1, §2, §3, §4, §5

MIAPaCa-2/AMG510 cells = assay: Proliferation assay, cells in adhesion; format: cell-based
MOLM-13 cells [2] = assay: Long term proliferation assay, Cell Titer-Glo read-out; format: cell-based, human
Experimental: as §1, §2, §3, §4, §5

KG-1 cells = assay: Long term proliferation assay, InCell read-out; format: cell-based
Experimental: as §1, §2, §3, §4, §5

OCI-AML-3 cells = assay: Long term proliferation assay, InCell read-out; format: cell-based
Experimental: as §1, §2, §3, §4, §5

C=CC(=O)NC1CCCN(Cc2ccnc(C(=O)Nc3ccc(-c4cc5c(N6CCOCC6)ncnc5[nH]4)cc3)c2)C1 (stereo not drawn) [Compound 10]
IC50 (Panc 10.05 cells; Panc1005, Panc 10.05, T4, read-out: IC50): 0.79 µM
IC50 (Panc 10.05 cells; Panc1005, Panc 10.05, T4, read-out: pIC50 (converted)): 0.794 µM
IC50 (Panc 10.05 cells; Panc1005, Panc 10.05, T7, read-out: IC50): 0.49 µM
IC50 (Panc 10.05 cells; Panc1005, Panc 10.05, T7, read-out: pIC50 (converted)): 0.49 µM
IC50 (Panc 10.05 cells; Panc1005, Panc 10.05, T11, read-out: IC50): 0.28 µM
IC50 (Panc 10.05 cells; Panc1005, Panc 10.05, T11, read-out: pIC50 (converted)): 0.282 µM
% max (Panc 10.05 cells; Panc 10.05, T4): 84%
% max (Panc 10.05 cells; Panc 10.05, T7): 97%
% max (Panc 10.05 cells; Panc 10.05, T11): 99%
IC50 (NCI-H23 cells; NCI-H23, NCI-H23, T4, read-out: IC50): 0.35 µM
IC50 (NCI-H23 cells; NCI-H23, NCI-H23, T4, read-out: pIC50 (converted)): 0.355 µM
IC50 (NCI-H23 cells; NCI-H23, NCI-H23, T7, read-out: IC50): 0.2 µM
IC50 (NCI-H23 cells; NCI-H23, NCI-H23, T7, read-out: pIC50 (converted)): 0.263 µM
IC50 (NCI-H23 cells; NCI-H23, NCI-H23, T11, read-out: IC50): 0.19 µM
IC50 (NCI-H23 cells; NCI-H23, NCI-H23, T11, read-out: pIC50 (converted)): 0.191 µM
% max (NCI-H23 cells; NCI-H23, T4): 92%
% max (NCI-H23 cells; NCI-H23, T7): 96%
% max (NCI-H23 cells; NCI-H23, T11): 98%
IC50 (MV4-11 cells; MV4-11, 96 h, MV4-11, Day 4, read-out: Day 4 IC50): 0.17 µM
IC50 (MV4-11 cells; MV4-11, 264 h, MV4-11, Day 11, read-out: Day 11 IC50): 0.17 µM
IC50 (MV4-11 cells; MV4-11, MV4-11, T4, read-out: IC50): 0.17 µM
IC50 (MV4-11 cells; MV4-11, MV4-11, T4, read-out: pIC50 (converted)): 0.174 µM
IC50 (MV4-11 cells; MV4-11, MV4-11, T11, read-out: IC50): 0.17 µM
IC50 (MV4-11 cells; MV4-11, MV4-11, T11, read-out: pIC50 (converted)): 0.174 µM
% max (MV4-11 cells; MV4-11, T4): 90%
% max (MV4-11 cells; MV4-11, T11): 90%
IC50 (MOLM-13 cells [1]; MOLM-13, 96 h, MOLM-13, Day 4, read-out: Day 4 IC50): 0.08 µM
IC50 (MOLM-13 cells [1]; MOLM-13, 264 h, MOLM-13, Day 11, read-out: Day 11 IC50): 0.09 µM
IC50 (MOLM-13 cells [1]; MOLM-13, MOLM-13, T4, read-out: IC50): 0.08 µM
IC50 (MOLM-13 cells [1]; MOLM-13, MOLM-13, T4, read-out: pIC50 (converted)): 0.0776 µM
IC50 (MOLM-13 cells [1]; MOLM-13, MOLM-13, T11, read-out: IC50): 0.09 µM
IC50 (MOLM-13 cells [1]; MOLM-13, MOLM-13, T11, read-out: pIC50 (converted)): 0.0912 µM
% max (MOLM-13 cells [1]; MOLM-13, T4): 98%
% max (MOLM-13 cells [1]; MOLM-13, T11): 98%
IC50 (MIAPaCa-2/AMG510 cells; MIA PaCa-2, MIAPaCa-2/AMG510, T4, read-out: IC50): 0.3 µM
IC50 (MIAPaCa-2/AMG510 cells; MIA PaCa-2, MIAPaCa-2/AMG510, T4, read-out: pIC50 (converted)): 0.295 µM
IC50 (MIAPaCa-2/AMG510 cells; MIA PaCa-2, MIAPaCa-2/AMG510, T7, read-out: IC50): 0.17 µM
IC50 (MIAPaCa-2/AMG510 cells; MIA PaCa-2, MIAPaCa-2/AMG510, T7, read-out: pIC50 (converted)): 0.166 µM
IC50 (MIAPaCa-2/AMG510 cells; MIAPaCa-2/AMG510, T11, read-out: IC50): 0.15 µM
IC50 (MIAPaCa-2/AMG510 cells; MIAPaCa-2/AMG510, T11, read-out: pIC50 (converted)): 0.151 µM
% max (MIAPaCa-2/AMG510 cells; MIAPaCa-2/AMG510, T4): 92%
% max (MIAPaCa-2/AMG510 cells; MIAPaCa-2/AMG510, T7): 98%
% max (MIAPaCa-2/AMG510 cells; MIAPaCa-2/AMG510, T11): 99%
IC50 (MOLM-13 cells [2]; MOLM-13, 96 h, MOLM-13, Day 4, Cell Titer-Glo, read-out: Day 4 IC50): 0.1 µM
IC50 (MOLM-13 cells [2]; MOLM-13, 168 h, MOLM-13, Day 7, Cell Titer-Glo, read-out: Day 7 IC50): 0.05 µM
IC50 (MOLM-13 cells [2]; MOLM-13, 264 h, MOLM-13, Day 11, Cell Titer-Glo, read-out: Day 11 IC50): 0.05 µM
IC50 (MOLM-13 cells [2]; MOLM-13, 336 h, MOLM-13, Day 14, Cell Titer-Glo, read-out: Day 14 IC50): 0.08 µM
IC50 (MOLM-13 cells [2]; MOLM-13, MOLM-13, T4, CellTiter-Glo, read-out: IC50): 0.1 µM
IC50 (MOLM-13 cells [2]; MOLM-13, MOLM-13, T4, CellTiter-Glo, read-out: pIC50 (converted)): 0.0977 µM
IC50 (MOLM-13 cells [2]; MOLM-13, MOLM-13, T11, CellTiter-Glo, read-out: IC50): 0.05 µM
IC50 (MOLM-13 cells [2]; MOLM-13, MOLM-13, T11, CellTiter-Glo, read-out: pIC50 (converted)): 0.0479 µM
% max (MOLM-13 cells [2]; MOLM-13, T4, CellTiter-Glo): 98%
% max (MOLM-13 cells [2]; MOLM-13, T11, CellTiter-Glo): 99%
IC50 (KG-1 cells; KG-1, 96 h, KG-1, Day 4, read-out: Day 4 IC50): 0.52 µM
IC50 (KG-1 cells; KG-1, 264 h, KG-1, Day 11, read-out: Day 11 IC50): 0.3 µM
IC50 (KG-1 cells; KG-1, KG-1, T4, read-out: IC50): 0.52 µM
IC50 (KG-1 cells; KG-1, KG-1, T4, read-out: pIC50 (converted)): 0.525 µM
IC50 (KG-1 cells; KG-1, KG-1, T11, read-out: IC50): 0.3 µM
IC50 (KG-1 cells; KG-1, KG-1, T11, read-out: pIC50 (converted)): 0.302 µM
% max (KG-1 cells; KG-1, T4): 100%
% max (KG-1 cells; KG-1, T11): 100%
IC50 (OCI-AML-3 cells; OCI-AML-3, 96 h, OCI-AML-3, Day 4, read-out: Day 4 IC50): 0.11 µM
IC50 (OCI-AML-3 cells; OCI-AML-3, 264 h, OCI-AML-3, Day 11, read-out: Day 11 IC50): 0.12 µM
IC50 (OCI-AML-3 cells; OCI-AML-3, OCI-AML3, T4, read-out: IC50): 0.11 µM
IC50 (OCI-AML-3 cells; OCI-AML-3, OCI-AML3, T4, read-out: pIC50 (converted)): 0.11 µM
IC50 (OCI-AML-3 cells; OCI-AML-3, OCI-AML3, T11, read-out: IC50): 0.12 µM
IC50 (OCI-AML-3 cells; OCI-AML-3, OCI-AML3, T11, read-out: pIC50 (converted)): 0.123 µM
% max (OCI-AML-3 cells; OCI-AML3, T4): 100%
% max (OCI-AML-3 cells; OCI-AML3, T11): 100%
